Drawing on ChEMBL document CHEMBL1671629, “Penetration of chlorhexidine into human skin” (Antimicrob Agents Chemother, 2008), this text covers tissue concentration and Drug uptake for 1 molecule.

Holding throughout (format): ADME, tissue-based
Series [1] has as its system Zone of skin. As to the kind of experiment: Drug permeation in top 100 micrometer sections of human skin using Franz-cell skin model assessed as compound penetration per mg tissue exposed to 2% wt/vol of compound administered topically measured after 2 mins exposure by HPLC.
Series [2] deals with Zone of skin. As to the kind of experiment: Drug permeation in top 100 micrometer sections of human skin using Franz-cell skin model assessed as compound penetration per mg tissue exposed to 2% wt/vol of compound administered topically measured after 30 mins exposure by HPLC. The settings on record: 0.5 h.
In series [3] the test system is Zone of skin. Briefly: Drug permeation in deeper <300 micrometer sections of human skin using Franz-cell skin model assessed as compound penetration per mg tissue exposed to 2% wt/vol of compound administered topically measured after 2 mins exposure by HPLC.
For series [4], the system named is Zone of skin. Briefly: Drug permeation in deeper <300 micrometer sections of human skin using Franz-cell skin model assessed as compound penetration per mg tissue exposed to 2% wt/vol of compound administered topically measured after 30 mins exposure by HPLC. The settings on record: 0.5 h.
In series [5] the test system is Zone of skin. As to the kind of experiment: Drug permeation in top 100 micrometer sections of human skin using Franz-cell skin model assessed as compound penetration per mg tissue exposed to 2% wt/vol of compound administered topically measured after 24 hrs exposure by HPLC.
Series [6] concerns Zone of skin. Briefly: Drug permeation in deeper <300 micrometer sections of human skin using Franz-cell skin model assessed as compound penetration per mg tissue exposed to 2% wt/vol of compound administered topically measured after 24 hrs exposure by HPLC.

For `N=C(NCCCCCCNC(=N)NC(=N)Nc1ccc(Cl)cc1)NC(=N)Nc1ccc(Cl)cc1.O=C(O)[C@H](O)[C@@H](O)[C@H](O)[C@H](O)CO`, the tissue concentration in the series with Zone of skin [1] was 0.157 µg/mg; with Zone of skin [2], 0.077 µg/mg; in the series with Zone of skin [5], 7.88 µg/mg. The Drug uptake in the series on Zone of skin [3] is below 0.002 µg; with Zone of skin [4], below 0.002 µg; in the series on Zone of skin [6], below 1 µg.
